Test results as given in ChEMBL document CHEMBL1151110, “Biosynthesis of staurosporine, 1. 1H- and 13C-NMR assignments” (J Nat Prod, 1988).

Experiment: Acute toxicity in ip dosed mouse
Assay type: organism-based
Details: in vivo

CN[C@@H]1C[C@H]2O[C@@](C)([C@@H]1OC)n1c3ccccc3c3c4c(c5c6ccccc6n2c5c31)C(=O)NC4.Cl gave an LD50 of 6.6 mg/kg.
